From ChEMBL document CHEMBL1125167, “Synthesis and broad-spectrum antiviral activity of 7,8-dihydro-7-methyl-8-thioxoguanosine” (1990) come the findings set out here.

Assay [1] deals with Banzi virus. The experiment in a line: Indicates the number of animals that died and survivors lived through 21 days at 25 mg/kg against Banzi virus. The assay is classed as functional.
The test system of assay [2] is Banzi virus. The experiment in a line: Indicates the number of animals that died and survivors lived through 21 days at 50 mg/kg against Banzi virus. The assay is classed as functional.
Assay [3] deals with Coronaviridae. The experiment in a line: Indicates the number of animals that died and survivors lived through 21 days at 100 mg/kg rat corona virus. The assay is classed as functional, Coronavirus.
The subject of assay [4] is Encephalomyocarditis virus. As to the kind of experiment: Indicates the number of animals that died and survivors lived through 21 days at 50 mg/kg against EMC virus. In kind it is functional.
The subject of assay [5] is Encephalomyocarditis virus. As to the kind of experiment: Indicates the number of animals that died and survivors lived through 21 days at 25 mg/kg against EMC virus. In kind it is functional.
For assay [6], the system named is San Angelo virus. As to the kind of experiment: Indicates the number of animals that died and survivors lived through 21 days at 25 mg/kg against San Angelo virus. In kind it is functional.
Assay [7] has as its system San Angelo virus. As to the kind of experiment: Indicates the number of animals that died and survivors lived through 21 days at 50 mg/kg against San Angelo virus. In kind it is functional.
Assay [8] deals with Semliki Forest virus. The experiment in a line: Indicates the number of animals that died and survivors lived through 21 days at 25 mg/kg against Forest virus. In kind it is functional.
Assay [9] concerns Semliki Forest virus. The experiment in a line: Indicates the number of animals that died and survivors lived through 21 days at 50 mg/kg against Forest virus. The assay is classed as functional.
Assay [10] in a line: Evaluated for its effect by the ratio between percent survivors and the total animals taken against Banzi virus infection at a dose of 25 mg/kg half-daily intraperitoneal doses at 24 and 18 hours before the virus inoculation; 11/12. The assay is classed as functional.
Assay [11] can be described thus: Evaluated for its effect by the ratio between percent survivors and the total animals taken against Banzi virus infection at a dose of 50 mg/kg half-daily intraperitoneal doses at 24 and 18 hours before the virus inoculation; 10/12. In kind it is functional.
Assay [12] in a line: Evaluated for its effect by the ratio between percent survivors and the total animals taken against EMC virus infection at a dose of 25 mg/kg half-daily intraperitoneal doses at 24 and 18 hours before the virus inoculation; 6/12. In kind it is functional.
Assay [13] can be described thus: Evaluated for its effect by the ratio between percent survivors and the total animals taken against EMC virus infection at a dose of 50 mg/kg half-daily intraperitoneal doses at 24 and 18 hours before the virus inoculation; 9/12. The assay is classed as functional.
A short description of assay [14]: Evaluated for its effect by the ratio between percent survivors and the total animals taken against San Angelo virus infection at a dose of 25 mg/kg half-daily intraperitoneal doses at 24 and 18 hours before the virus inoculation; 9/12. The assay is classed as functional.
Assay [15] in a line: Evaluated for its effect by the ratio between percent survivors and the total animals taken against San Angelo virus infection at a dose of 50 mg/kg half-daily intraperitoneal doses at 24 and 18 hours before the virus inoculation; 10/12. The assay is classed as functional.
Assay [16] can be described thus: Evaluated for its effect by the ratio between percent survivors and the total animals taken against Forest virus infection at a dose of 25 mg/kg half-daily intraperitoneal doses at 24 and 18 hours before the virus inoculation; 9/12. In kind it is functional.
Assay [17] in a line: Evaluated for its effect by the ratio between percent survivors and the total animals taken against Forest virus infection at a dose of 50 mg/kg half-daily intraperitoneal doses at 24 and 18 hours before the virus inoculation; 10/12. The assay is classed as functional.
Assay [18] in a line: Evaluated for its effect by the ratio between percent survivors and the total animals taken against rat corna virus infection at a dose of 100 mg/kg half-daily intraperitoneal doses at 24 and 18 hours before the virus inoculation; 7/12. The assay is classed as functional.
Assay [19] is described as follows: Ratio between percent survivors and the total animals taken against EMC virus infection at a dose of 50 mg/kg half-daily intraperitoneal doses at 24 and 18 hours before the virus inoculation; 9/12. The assay is classed as functional.
Assay [20] is described as follows: Ratio between percent survivors and the total animals taken against San Angelo virus infection at a dose of 25 mg/kg half-daily intraperitoneal doses at 24 and 18 hours before the virus inoculation; 11/12. In kind it is functional.
Assay [21] in a line: Ratio between percent survivors and the total animals taken against San Angelo virus infection at a dose of 50 mg/kg half-daily intraperitoneal doses at 24 and 18 hours before the virus inoculation; 11/12. The assay is classed as functional.
Assay [22] can be described thus: Ratio between percent survivors and the total animals taken against Forest virus infection at a dose of 25 mg/kg half-daily intraperitoneal doses at 24 and 18 hours before the virus inoculation; 8/12. In kind it is functional.
Assay [23] in a line: Ratio between percent survivors and the total animals taken against Forest virus infection at a dose of 50 mg/kg half-daily intraperitoneal doses at 24 and 18 hours before the virus inoculation; 9/12. In kind it is functional.
Assay [24] can be described thus: Ratio between percent survivors and the total animals taken against rat corona virus infection at a dose of 100 mg/kg half-daily intraperitoneal doses at 24 and 18 hours before the virus inoculation; 9/12. The assay is classed as functional.
Assay [25] in a line: Ratio between percent survivors and the total animals taken against Banzi virus infection at a dose of 50 mg/kg half-daily intraperitoneal doses at 24 and 18 hours before the virus inoculation; 12/12. The assay is classed as functional.
Assay [26] is described as follows: Ratio between percent survivors and the total animals taken against EMC virus infection at a dose of 25 mg/kg half-daily intraperitoneal doses at 24 and 18 hours before the virus inoculation; 8/12. The assay is classed as functional.
Assay [27] in a line: Ratio between percent survivors and the total animals taken against Banzi virus infection at a dose of 25 mg/kg half-daily intraperitoneal doses at 24 and 18 hours before the virus inoculation; 11/12. In kind it is functional.

SMILES strings stand for the structures.

For `Cn1c(=S)n(C2O[C@H](CO)[C@@H](O)[C@H]2O)c2nc(N)nc(O)c21` (stereo partly specified), the Mean survival time in [1] is 9 days; in assay [2] it was 9 days; in assay [3], 9.4 days; in [4], 5.7 days; in assay [5] it was 5.5 days; in assay [6] it was 11.3 days. In addition, the values for the Mean survival time in assay [7], in assay [8] and in [9] were 10.5 days, 8 days and 9 days, respectively. Besides, the Ratio came to 11 in assay [10]; 10 in [11]; 6 in assay [12]; 9 in [13]; 9 in assay [14]; 10 in assay [15]. Also, the values for the Ratio in assay [16], in assay [17] and in assay [18] were 9, 10 and 7, respectively.

With `Cn1c(=O)n(C2O[C@H](CO)[C@@H](O)[C@H]2O)c2nc(N)nc(O)c21` (stereo partly specified), the Mean survival time in assay [1] is 8 days; in [2], more than 21 days; in assay [3], 9.7 days; in [4], 8 days; in assay [5], 8.3 days; in assay [6], 12 days. The Mean survival time in assay [7] is 10 days; in [8] it was 8.7 days; in assay [9] it was 9.7 days. For the same compound, the Ratio in assay [19] came out at 9; in assay [20] it was 11; in [21] it was 11; in assay [22] it was 8; in assay [23], 9; in assay [24], 9. Moreover, the Ratio is 12 in assay [25], 8 in assay [26] and 11 in assay [27].
